“And” between values parts separate entries of the source, which are not always exact repeats. Identical values can stand only once. Inconclusive results and toxic doses are left out. Rule for the calls: active = survival T/C of 150% or more; inactive = T/C below 125% in these data.
Test system: P388 leukemia ip, CD2F1 mice, survival T/C
Assay: NCI In Vivo Anticancer Drug Screen. Data for tumor model P388 Leukemia (intraperitoneal) in CD2F1 (CDF1) mice
Conditions: endpoint: median survival time, higher = longer survival
Outline: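 Mice carrying the transplanted tumor received test compound or vehicle. Survival was recorded in each group, and the value is the treated-group measurement divided by that of the vehicle-treated control group.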

[1] = dose: 6.25 mg/kg/injection, schedule: Q01DX009 (ip), vehicle: Klucel (hydroxypropylcellulose) (HPC)
[2] = dose: 12.5 mg/kg/injection, schedule: Q01DX009 (ip), vehicle: Klucel (hydroxypropylcellulose) (HPC)
[3] = dose: 25.0 mg/kg/injection, schedule: Q01DX009 (ip), vehicle: Klucel (hydroxypropylcellulose) (HPC)
[4] = dose: 100.0 mg/kg/injection, schedule: Q04DX003 (ip), vehicle: Klucel (hydroxypropylcellulose) (HPC)
[5] = dose: 200.0 mg/kg/injection, schedule: Q04DX003 (ip), vehicle: Klucel (hydroxypropylcellulose) (HPC)
[6] = dose: 400.0 mg/kg/injection, schedule: Q04DX003 (ip), vehicle: Klucel (hydroxypropylcellulose) (HPC)
[7] = dose: 25.0 mg/kg/injection, schedule: Q01DX009 (ip), vehicle: other
[8] = dose: 25.0 mg/kg/injection, schedule: Q01DX009 (ip), vehicle: water
[9] = dose: 50.0 mg/kg/injection, schedule: Q01DX009 (ip), vehicle: water
[10] = dose: 100.0 mg/kg/injection, schedule: Q01DX009 (ip), vehicle: water
[11] = dose: 200.0 mg/kg/injection, schedule: Q01DX009 (ip), vehicle: water
[12] = dose: 50.0 mg/kg/injection, schedule: Q01DX005 (ip), vehicle: saline with Tween-80
[13] = dose: 100.0 mg/kg/injection, schedule: Q01DX005 (ip), vehicle: saline with Tween-80
[14] = dose: 200.0 mg/kg/injection, schedule: Q01DX005 (ip), vehicle: saline with Tween-80
[15] = dose: 12.5 mg/kg/injection, schedule: Q01DX009 (ip), vehicle: saline with Tween-80
[16] = dose: 50.0 mg/kg/injection, schedule: Q01DX009 (ip), vehicle: saline with Tween-80
[17] = dose: 100.0 mg/kg/injection, schedule: Q01DX009 (ip), vehicle: saline with Tween-80
[18] = dose: 200.0 mg/kg/injection, schedule: Q01DX009 (ip), vehicle: saline with Tween-80
[19] = dose: 25.0 mg/kg/injection, schedule: Q01DX009 (ip), vehicle: saline with Tween-80

Measured: T/C

CC1OC(C)(C)OC1C(=O)O (stereo not given)
inactive: dose: 3.13 mg/kg/injection, schedule: Q01DX009 (ip), vehicle: Klucel (hydroxypropylcellulose) (HPC) 89 % of control | [1] 95 % of control | [2] 92 % of control | [3] 89 % of control | dose: 50.0 mg/kg/injection, schedule: Q01DX009 (ip), vehicle: Klucel (hydroxypropylcellulose) (HPC) 89 % of control

C[N+](C)(Cc1cccc(Cl)c1)c1nnn[n-]1
inactive: [4] 98 % of control | [5] 101 % of control | [6] 107 % of control

CC(NC(=O)OCc1ccccc1)C(=O)NC1C(O)OC(CO)C(O)C1O (stereo not given)
inactive: dose: 12.5 mg/kg/injection, schedule: Q01DX009 (ip), vehicle: other 96 % of control | [7] 100 % of control | [8] 104 % of control | [9] 93 % of control | [10] 106 % of control | [11] 102 % of control

CC(C)(C)OC(=O)NC(CCC(N)=O)C(=O)ON1C(=O)CCC1=O (stereo not given)
inactive: [12] 98 % of control | [13] 99 % of control | [14] 104 % of control

CCCCCCCCOP(=O)(N1CC1C)N1CC1C (stereo not given)
active: [16] 158 % of control and 168 % of control
inactive: [15] 113 % of control | dose: 25.0 mg/kg/injection, schedule: Q04DX003 (ip), vehicle: saline 109 % of control | dose: 50.0 mg/kg/injection, schedule: Q04DX003 (ip), vehicle: saline 113 % of control

O=C1CCCC2C3CCC[N+]4([O-])CCCC(O)(CN12)C34 (stereo not given)
inactive: dose: 6.2 mg/kg/injection, schedule: Q01DX007 (ip), vehicle: carboxymethylcellulose (CMC) 100 % of control | dose: 12.5 mg/kg/injection, schedule: Q01DX007 (ip), vehicle: carboxymethylcellulose (CMC) 91 % of control | dose: 25.0 mg/kg/injection, schedule: Q01DX007 (ip), vehicle: carboxymethylcellulose (CMC) 91 % of control

O=C(CC(O)(c1ccccc1)c1ccccc1)Sc1ccccc1
inactive: [4] 110 % of control | [5] 105 % of control | [6] 105 % of control

O=[N+]([O-])c1cccc2nc(Cl)ccc12
inactive: [7] 93 % of control | dose: 50.0 mg/kg/injection, schedule: Q01DX009 (ip), vehicle: other 93 % of control | dose: 100.0 mg/kg/injection, schedule: Q01DX009 (ip), vehicle: other 98 % of control

CN1C(=O)C2CC(O)C(SC3CC4C(=O)N(C)C(=O)C4CC3O)CC2C1=O (stereo not given)
inactive: [8] 98 % of control | [9] 100 % of control | [10] 98 % of control | [11] 98 % of control

CC(C)(C(=O)O)C(Nc1ncnc2c1ncn2C1OC(CO)C(O)C1O)C(=O)O (stereo not given)
inactive: dose: 100.0 mg/kg/injection, schedule: Q04DX003 (ip), vehicle: saline 100 % of control | dose: 200.0 mg/kg/injection, schedule: Q04DX003 (ip), vehicle: saline 106 % of control

O=C(O)Cc1ccc2c(c1)sc1nc(-c3ccc(Br)cc3)cn12
inactive: [4] 101 % of control | [5] 103 % of control | [6] 103 % of control

CC[C@@]1(O)C[C@H](OC2CC(N)C(O)C(C)O2)c2c(O)c3c(c(O)c2[C@H]1C(=O)OC)C(=O)c1cccc(O)c1C3=O (stereo not given in full)
active: dose: 25.0 mg/kg/injection, schedule: Q01DX001 (ip), vehicle: water 150 % of control
inactive: dose: 1.0 mg/kg/injection, schedule: Q01DX009 (ip), vehicle: water 115 % of control | dose: 2.0 mg/kg/injection, schedule: Q01DX009 (ip), vehicle: water 116 % of control | dose: 2.3 mg/kg/injection, schedule: Q01DX009 (ip), vehicle: water 123 % of control | dose: 12.5 mg/kg/injection, schedule: Q01DX001 (ip), vehicle: water 116 % of control | dose: 16.0 mg/kg/injection, schedule: Q01DX009 (ip), vehicle: water 86 % of control

O=C1CNC(=O)N1c1ccccc1
inactive: [17] 103 % of control | [18] 98 % of control | dose: 400.0 mg/kg/injection, schedule: Q01DX009 (ip), vehicle: saline with Tween-80 103 % of control

O=C(CCC(=O)Nc1ccc(Cl)cc1Cl)CC(=O)c1ccco1
inactive: dose: 60.0 mg/kg/injection, schedule: Q01DX005 (ip), vehicle: saline with Tween-80 102 % of control | dose: 120.0 mg/kg/injection, schedule: Q01DX005 (ip), vehicle: saline with Tween-80 105 % of control | dose: 240.0 mg/kg/injection, schedule: Q01DX005 (ip), vehicle: saline with Tween-80 102 % of control

CN(C)c1ccc(C=Nc2ccc(OCCCCCCCCCCC(=O)O)cc2)cc1
inactive: [16] 93 % of control | [17] 88 % of control | [18] 90 % of control

CCC(=O)[O][Sn]([CH3])([CH3])[O][Sn]([CH3])([CH3])[O]C(=O)CC
inactive: dose: 6.25 mg/kg/injection, schedule: Q01DX005 (ip), vehicle: saline 117 % of control | dose: 12.5 mg/kg/injection, schedule: Q01DX005 (ip), vehicle: saline 117 % of control and 118 % of control | dose: 25.0 mg/kg/injection, schedule: Q01DX005 (ip), vehicle: saline 120 % of control

Cc1ccc2c(c1)C(O)(CC(=O)c1ccccc1)C(=O)N2 (stereo not given)
inactive: [16] 99 % of control | [17] 96 % of control | [18] 95 % of control

NC(=O)/C=C/C(N)=O
inactive: [15] 104 % of control | [19] 98 % of control | [16] 102 % of control | [17] 107 % of control | dose: 100.0 mg/kg/injection, schedule: Q04DX003 (ip), vehicle: saline with Tween-80 90 % of control | [18] 101 % of control | dose: 200.0 mg/kg/injection, schedule: Q04DX003 (ip), vehicle: saline with Tween-80 90 % of control

Cc1cc(C)c(-c2c(Br)c(OC(=O)CO[C@@H]3C[C@H](C)CC[C@H]3C(C)C)c(-c3c(C)cc(C)c(Br)c3C)c(Br)c2OC(=O)CO[C@@H]2C[C@H](C)CC[C@H]2C(C)C)c(C)c1Br
inactive: [12] 107 % of control | [13] 100 % of control | [14] 88 % of control

COc1cc2ccc1-c1cc(ccc1O)CC1c3cc4c(cc3CCN1C)Oc1c(OC)cc3c(c1O4)C(C2)N(C)CC3 (stereo not given)
inactive: dose: 7.5 mg/kg/injection, schedule: Q01DX005 (ip), vehicle: Klucel (hydroxypropylcellulose) (HPC) 99 % of control | dose: 15.0 mg/kg/injection, schedule: Q01DX005 (ip), vehicle: Klucel (hydroxypropylcellulose) (HPC) 99 % of control | dose: 30.0 mg/kg/injection, schedule: Q01DX005 (ip), vehicle: Klucel (hydroxypropylcellulose) (HPC) 92 % of control | dose: 60.0 mg/kg/injection, schedule: Q01DX005 (ip), vehicle: Klucel (hydroxypropylcellulose) (HPC) 104 % of control

O=C([S-])N1CCCCC1.O=C([S-])N1CCCCC1.[Ni+2]
inactive: [15] 90 % of control | [19] 100 % of control | [16] 90 % of control

O=P(c1ccccc1)(c1ccccc1)c1ccccc1.O=P(c1ccccc1)(c1ccccc1)c1ccccc1.O=S(=O)(O)O.[Ni]
inactive: [1] 99 % of control | [2] 111 % of control | [3] 107 % of control

Source: PubChem BioAssay AID330 (DTP/NCI, 2004)
